Experimental findings from US20230090094A1, “HEMP EXTRACT FOR TREATMENT OF PAIN, CANCER AND EPILEPSY IN ANIMALS” (ElleVet Sciences, priority 2019, published 2023) are described below.

Broadly, the AUC(0-t) is the area under the concentration-time curve up to a stated or last time point. A high value points to high exposure.

Values joined by “and” are separate entries in the source; they are usually repeats but may differ in a detail not shown here. Equal values may be shown once. Marks after values point to notes of the source that are not given here.

A short description of data set [1]: Feline serum cannabidiol quantification and pharmacokinetics (LC-MS/MS). It counts as in vivo, cats. The conditions noted are these: for Cannabidiol in serum: individual cats, replicates A/B, ppb = ng/mL, LOD 1.9, LOQ 6.2. As for the experimental part:
On the first day of dosing, blood was collected for a PK analysis from 6 of the 8 cats. The most cooperative cats were selected for the PK analysis. […] Samples were placed into a red top clotting tube with no serum separator. […] The harvested serum was placed in cyrovials stored at −70° C. Each tube was labeled with the cat id, date of collection and collection time point. Samples were shipped overnight on dry ice to the Proteomics & Metabolomics Facility at Colorado State University.
Aliquots of feline serum were delivered to the facility on dry ice and stored at −80° C. upon receipt. […] of cold (−20C.) 100% Acetonitrile (spiked with 60 ng/mL of d3-CBD) was added to each sample and vortexed at room temperature for 5 minutes. 200 μL of water was added and vortexed for an additional 5 minutes. 1 ml of 100% hexane was then added to each sample and vortexed for a final 5 minutes. […] The upper hexane layer was transferred to new-labeled glass vials (˜900 uL per sample), carefully avoiding the middle and lower layers.
An 8 point standard curve of CBD was generated in matrix background using a blank serum. Concentrations ranged from 0 ng/mL 1000 ng/mL (3.2X dilution series). 50 uL of each spiked serum sample was extracted as above.
LC-MS/MS was performed on a Waters Acquity M-Class UPLC coupled to a Waters Xevo TQ-S triple quadrupole mass spectrometer. […] Flow rate was 3.0 μL/min and injection volume was 2.0 μL. Samples were held at 6° C. in the autosampler, and the column was operated at 70° C. The MS was operated in selected reaction monitoring (SRM) mode, where a parent ion is selected by the first quadrupole, fragmented in the collision cell, then a fragment ion selected for by the third quadrupole. Product ions, collision energies, and cone voltages were optimized for each analyte by direct injection of individual synthetic standards. Inter-channel delay was set to 3 ms. The MS was operated in positive ionization mode with the capillary voltage set to 3.6 kV. […] Desolvation gas flow was […], cone gas flow was 150 L/hr, and collision gas flow was 0.2 mL/min. Nebulizer pressure (nitrogen) was set to 7 Bar. Argon was used as the collision gas.
Each target analyte was visually inspected for retention time and peak area integration. Peak areas were extracted for target compounds detected in biological samples and normalized to the peak area of the appropriate internal standard in each sample using in-house R Script (TQS-tools). CBD concentrations were calculated in nanograms per milliliter of extract (0.06 mL) and then back calculated to nanograms per mL of serum (0.05 mL of serum).
LOD are calculated based on the standard deviation of the response (Sy) of the 0 point calibration standard (i.e. 0 ng/mL CBD as an estimate on noise) and the slope of the calibration curve (S) at levels approximating the LOD according to the formula: LOD=3*(Sy/S). LOQ=10*(Sy/S).

The nature of data set [2]: Single-dose oral pharmacokinetics of CBD oil in beagles. Type of data set: in vivo, dogs. The note with it: industrial hemp. The protocol: The dogs were fed two hours after dosing. […] Attitude, behavior, proprioception, and gait were subjectively evaluated at each time point during free running/walking and navigation around standard traffic cones (weaving). […] Blood samples were obtained via jugular venipuncture and transferred to a coagulation tube for 20 minutes. Samples were centrifuged (VWR, Clinical Centrifuge) at 3,600×g for 10 minutes; serum was removed and stored at −80° C. until analysis using liquid chromatography-mass spectrometry (LC-MS) at Colorado State University Core Mass Spectrometry facility.
CBD was extracted from canine serum using a combination of protein precipitation and liquid-liquid extraction using n-hexane, with minor modifications for microflow ultra-high pressure liquid chromatography (UHPLC). Briefly, 0.05 ml of canine serum was subjected to protein precipitation in the presence of ice-cold acetonitrile (80% final concentration), spiked with deuterated CBD as the internal standard (0.06 mg/ml, CDB-d3 Cerilliant, Round Rock, Tex., USA). 0.2 ml of water was added to each sample prior to the addition of 1.0 ml of hexane to enhance liquid-liquid phase separation. Hexane extract was removed and concentrated to dryness under laboratory nitrogen. Prior to LC-MS analysis, samples were resuspended in 0.06 mL of 100% acetonitrile. A standard curve using the CBD analytical standard was prepared in canine serum non-exposed to CBD and extracted as above.
From the UHPLC-QQQ-MS data, peak areas were extracted for CBD detected in biological samples and normalized to the peak area of the internal standard CBD-d3, in each sample using Skyline as well as an in-house R Script (www.r-project.org). […] Pharmacokinetic variables were estimated by means of non-compartmental analysis, utilizing a pharmacokinetic software package (PK Solution, version 2.0, Montrose, Colo., USA).

`C=C(C)[C@@H]1CCC(C)=C[C@H]1c1c(O)cc(CCCCC)cc1O` [cannabidiol]: the Cannabidiol in serum in data set [1] (60 min after CBD oil 2 mg/kg oral) is 24.44 ppb and 26.32 ppb and 44.14 ppb and 45.40 ppb and 28.10 ppb and 31.02 ppb and 378.59 ppb and 535.08 ppb and 32.85 ppb and 34.26 ppb; in data set [1] (4 hr after CBD oil 2 mg/kg oral), 1.69** ppb and 1.82** ppb and 1.53** ppb and 51.48 ppb and 68.31 ppb; in data set [1] (8 hr after CBD oil 2 mg/kg oral), 65.42 ppb and 79.30 ppb and 1.82** ppb and 2.22* ppb and 44.23 ppb and 46.05 ppb and 365.18 ppb and 376.28 ppb and 71.64 ppb and 79.59 ppb; in data set [1] (24 hr after CBD oil 2 mg/kg oral) it was 42.76 ppb and 44.88 ppb and 141.92 ppb and 147.74 ppb and 10.28 ppb and 10.31 ppb and 13.95 ppb and 17.17 ppb and 0.18** ppb and 0.36** ppb and 33.12 ppb and 35.88 ppb. For the same compound, in data set [1] (serum, po, 2 mg/kg), the AUC(0-t) was found to be 154 ng·h/mL. For the same compound, the Average retention time in data set [2] (dosing at 2 mg/kg) is 6 h. In addition, in data set [2] (dosing at 2 mg/kg, average 20 mg total dose), the Peak concentration result is “approximately 100 ug/kg”. Moreover, in data set [2] (oral dosing at 2 mg/kg), the Total absorption result is on record as “less than 20%”.
